Test results published in patent US11034692B1 (Genentech, Inc., priority 2017, dated 2021).

The compounds below were run against HPK1 (assay: HPK1 Lantha Binding Assay ("Lanth")). Conditions: Table B1-1, read-out: HPK1 Ki (μM) (Lanth).
How it was run: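 TR-FRET tracer displacement with 2 nM GST-tagged kinase, 2 nM Eu-anti-GST antibody and 15 nM Tracer222 at 23 C. Enzyme–antibody preincubated 1 h with compound, then tracer added for 1 h; 340 nm excitation, 615/665 nm emission. Ki from Morrison fit over an 11-point 5-fold dilution.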

First: Cn1cc([C@@H]2C[C@H]2C(=O)Nc2cc3cc(-c4cnccc4CCO)nc(N)c3cn2)cn1 [Compound 214, (1R,2R)—N-(8-amino-6-(4-(2-hydroxyethyl)pyridin-3-yl)-2,7-naphthyridin-3-yl)-2-(1-methyl-1H-pyrazol-4-yl)cyclopropanecarboxamide]
Second: Cc1ccncc1-c1cc2cc(NC(=O)[C@@H]3C[C@H]3c3cnn(C)c3)ncc2c(N)n1 [Compound 198, (1R,2R)—N-(8-amino-6-(4-methylpyridin-3-yl)-2,7-naphthyridin-3-yl)-2-(1-methyl-H-pyrazol-4-yl)cyclopropane-1-carboxamide]
The Ki of the first is 14-fold lower: 0.039 nM for the first, 0.55 nM for the second.

Cc1ccncc1-c1cc2cc(NC(=O)C(C)(C)C#N)ncc2c(N)n1 [Compound 35, N-(8-amino-6-(4-methylpyridin-3-yl)-2,7-naphthyridin-3-yl)-2-cyano-2-methylpropanamide] and COC(C)(C)C(=O)Nc1cc2cc(-c3cnccc3C)nc(N)c2cn1 [Compound 36, N-(8-amino-6-(4-methylpyridin-3-yl)-2,7-naphthyridin-3-yl)-2-methoxy-2-methylpropanamide] are within 1.5-fold of each other in Ki: 5540 nM for the first, 4080 nM for the second.

Compared with N#C[C@H]1C[C@@H]1C(=O)Nc1cc2cc(-c3cnccc3-c3cc[nH]n3)nc(N)c2cn1 [Compound 244, (1S,2S)—N-(6-(4-(1H-pyrazol-3-yl)pyridin-3-yl)-8-amino-2,7-naphthyridin-3-yl)-2-cyanocyclopropanecarboxamide], Cc1ccncc1-c1cc2cc(NC(=O)[C@@H]3C[C@H]3C#N)ncc2c(N)n1 [Compound 203, (1R,2R)—N-(8-amino-6-(4-methylpyridin-3-yl)-2,7-naphthyridin-3-yl)-2-cyanocyclopropane-1-carboxamide] is 8.9-fold lower in Ki: 3.56 nM for the first, 0.4 nM for the second.

NCCOCCn1cc([C@@H]2C[C@H]2C(=O)Nc2cc3cc(-c4c(Cl)cccc4Cl)nc(N)c3cn2)cn1 [Compound 296, (1R,2R)—N-[8-amino-6-(2,6-dichlorophenyl)-2,7-naphthyridin-3-yl]-2-[1-[2-(2-aminoethoxy)ethyl]-1H-pyrazol-4-yl]cyclopropane-1-carboxamide] and Cc1ccccc1-c1cc2cc(NC(=O)[C@H]3C[C@@H]3c3cnn(C)c3)ncc2c(N)n1 [Compound 299, (1S,2S)—N-[8-amino-6-(2-methylphenyl)-2,7-naphthyridin-3-yl]-2-(1-methyl-1H-pyrazol-4-yl)cyclopropane-1-carboxamide] are within 1.5-fold of each other in Ki: 0.026 nM for the first, 0.0359 nM for the second.

Compared with Cc1ccncc1-c1nc(N)c2cnc(NC(=O)[C@H]3C[C@@H]3c3cnn(C)c3)cc2c1Cl [Compound 233, (1S,2S)—N-(8-amino-5-chloro-6-(4-methylpyridin-3-yl)-2,7-naphthyridin-3-yl)-2-(1-methyl-1H-pyrazol-4-yl)cyclopropanecarboxamide], Cc1ccncc1-c1nc(N)c2cnc(NC(=O)[C@@H]3C[C@H]3CC#N)cc2c1Cl [Compound 269, (1R,2S)—N-[8-amino-5-chloro-6-(4-methylpyridin-3-yl)-2,7-naphthyridin-3-yl]-2-(cyanomethyl)cyclopropane-1-carboxamide] is 3.3-fold higher in Ki: 0.694 nM for the first, 2.3 nM for the second.

Compared with Cc1ccncc1-c1cc2cc(NC(=O)[C@@H]3C[C@@H]3F)ncc2c(N)n1 [Compound 6, (1S,2S)—N-(8-amino-6-(4-methylpyridin-3-yl)-2,7-naphthyridin-3-yl)-2-fluorocyclopropanecarboxamide], Cc1ccncc1-c1cc2cc(NC(=O)[C@@H]3CC[C@@H]3C)ncc2c(N)n1 [Compound 323, (1R,2S)—N-(8-amino-6-(4-methylpyridin-3-yl)-2,7-naphthyridin-3-yl)-2-methylcyclobutanecarboxamide] is 96-fold higher in Ki: 0.793 nM for the first, 76.3 nM for the second.

CCc1ccncc1-c1cc2cc(NC(=O)c3cnn(C)c3)ncc2c(N)n1 [Compound 73, 1-Methyl-1H-pyrazole-4-carboxylic acid [8-amino-6-(4-ethylpyridin-3-yl)-[2,7]naphthyridin-3-yl]amide] and CCc1ccncc1-c1cc2cc(NC(=O)c3ccnn3C)ncc2c(N)n1 [Compound 72, 2-Methyl-2H-pyrazole-3-carboxylic acid [8-amino-6-(4-ethylpyridin-3-yl)-[2,7]naphthyridin-3-yl]amide] are within 1.5-fold of each other in Ki: 13.4 nM for the first, 14.1 nM for the second.

First: CNC(=O)C(C)(C)n1cc(Nc2cc3cc(-c4cnccc4C)nc(N)c3cn2)cn1 [Compound 182, 2-[4-[[8-amino-6-(4-methyl-3-pyridyl)-2,7-naphthyridin-3-yl]amino]pyrazol-1-yl]-N,2-dimethyl-propanamide]
Second: CNC(=O)c1cc(Nc2cc3cc(-c4cnccc4C)nc(N)c3cn2)nn1C [Compound 263, 3-[[8-Amino-6-(4-methylpyridin-3-yl)-2,7-naphthyridin-3-yl]amino]-N,1-dimethyl-1H-pyrazole-5-carboxamide]
The Ki of the first is 57-fold higher: 1.2 nM for the first, 0.021 nM for the second.

Compared with Cc1ccc(C#N)cc1-c1cc2cc(NC(=O)[C@H]3C[C@@H]3c3cnn(C)c3)ncc2c(N)n1 [Compound 301, (1S,2S)—N-[8-amino-6-(5-cyano-2-methylphenyl)-2,7-naphthyridin-3-yl]-2-(1-methyl-1H-pyrazol-4-yl)cyclopropane-1-carboxamide], Cc1ccc(C(=O)N(C)C)cc1-c1cc2cc(NC(=O)[C@@H]3C[C@H]3c3cnn(C)c3)ncc2c(N)n1 [Compound 291, 3-(1-amino-6-[[(1R,2R)-2-(1-methyl-1H-pyrazol-4-yl)cyclopropane]amido]-2,7-naphthyridin-3-yl)-N,N,4-trimethylbenzamide] is 920-fold higher in Ki: 0.0692 nM for the first, 63.8 nM for the second.

Going from CCc1ccncc1-c1cc2cc(NC(=O)N[C@@H]3CCN(C)C3=O)ncc2c(N)n1 [Compound 176, (R)-1-(8-amino-6-(4-ethylpyridin-3-yl)-2,7-naphthyridin-3-yl)-3-(1-methyl-2-oxopyrrolidin-3-yl)urea] to CCc1ccncc1-c1cc2cc(NC(=O)C3CCC3)ncc2c(N)n1 [Compound 20, N-[8-amino-6-(4-ethyl-3-pyridyl)-2,7-naphthyridin-3-yl]cyclobutanecarboxamide], the Ki falls from 5.5 nM to 3.22 nM (1.7-fold).

Going from Cc1ccncc1-c1cc2cc(NC(=O)O[C@@H]3CCNC3=O)ncc2c(N)n1 [Compound 133] to Cc1ccncc1-c1cc2cc(NC(=O)[C@@H]3C[C@@]34CCNC(=O)C4)ncc2c(N)n1 [Compound 312, (1R,3S)—N-[8-amino-6-(4-methylpyridin-3-yl)-2,7-naphthyridin-3-yl]-5-oxo-6-azaspiro[2.5]octane-1-carboxamide], the Ki falls from 15 nM to 5.77 nM (2.6-fold). The second binds more tightly here.

CCc1ncncc1-c1cc2cc(NC(=O)[C@@H]3C[C@@H]3F)ncc2c(N)n1 [Compound 13, (1S,2S)—N-(8-amino-6-(4-ethylpyrimidin-5-yl)-2,7-naphthyridin-3-yl)-2-fluorocyclopropanecarboxamide] and N#Cc1ccncc1-c1cc2cc(NC(=O)[C@@H]3C[C@@H]3F)ncc2c(N)n1 [Compound 15, (1S,2S)—N-(8-amino-6-(4-cyanopyridin-3-yl)-2,7-naphthyridin-3-yl)-2-fluorocyclopropanecarboxamide] are within 1.5-fold of each other in Ki: 15.6 nM for the first, 22.6 nM for the second.

CCc1ccncc1-c1cc2cc(NC(=O)c3cnn(C4CCNCC4)c3)ncc2c(N)n1 [Compound 84, 1-Piperidin-4-yl-1H-pyrazole-4-carboxylic acid [8-amino-6-(4-ethylpyridin-3-yl)-[2,7]naphthyridin-3-yl]amide] and CCc1ccncc1-c1cc2cc(Nc3cnn(C)c3)ncc2c(N)n1 [Compound 74, 3-(4-Ethylpyridin-3-yl)-N6-(1-methyl-1H-pyrazol-4-yl)-[2,7]naphthyridine-1,6-diamine] are within 1.5-fold of each other in Ki: 1.8 nM for the first, 1.3 nM for the second.

Going from Cc1ccncc1-c1cc2cc(NC(=O)[C@@H]3[C@H](C)[C@H]3c3cnn(C)c3)ncc2c(N)n1 [Compound 329, (1R,2R,3R)—N-[8-amino-6-(4-methylpyridin-3-yl)-2,7-naphthyridin-3-yl]-2-methyl-3-(1-methyl-1H-pyrazol-4-yl)cyclopropane-1-carboxamide] to COCCN1C[C@@H]2[C@H](C1)[C@H]2C(=O)Nc1cc2cc(-c3cnccc3C)nc(N)c2cn1 [Compound 124, exo-N-[8-amino-6-(4-methyl-3-pyridyl)-2,7-naphthyridin-3-yl]-3-(2-methoxyethyl)-3-azabicyclo[3.1.0]hexane-6-carboxamide], the Ki falls from 2.65 nM to 1.1 nM (2.4-fold).

First: Nc1nc(-c2cnccc2CCO)cc2cc(NC(=O)[C@H]3C[C@@H]3c3cccnc3)ncc12 [Compound 254, (1S,2S)—N-[8-amino-6-[4-(2-hydroxyethyl)pyridin-3-yl]-2,7-naphthyridin-3-yl]-2-(pyridin-3-yl)cyclopropane-1-carboxamide]
Second: CCc1ccncc1-c1cc2cc(NC(=O)Cc3ccn[nH]3)ncc2c(N)n1 [Compound 102, N-(8-amino-6-(4-ethylpyridin-3-yl)-2,7-naphthyridin-3-yl)-2-(1H-pyrazol-5-yl)acetamide]
The Ki of the first is 4.7-fold lower: 4.55 nM for the first, 21.5 nM for the second. The first binds more tightly here.

CCc1ccncc1-c1cc2cc(Nc3cc(C(=O)N(C)CC)ccn3)ncc2c(N)n1 [Compound 81, 2-[8-Amino-6-(4-ethylpyridin-3-yl)-[2,7]naphthyridin-3-ylamino]-N-ethyl-N-methylisonicotinamide] and CCc1ccncc1-c1cc2cc(Nc3cc(C)ncn3)ncc2c(N)n1 [Compound 80, 3-(4-Ethylpyridin-3-yl)-N6-(6-methylpyrimidin-4-yl)-[2,7]naphthyridine-1,6-diamine] are the same in Ki: 0.3 nM for the first, 0.3 nM for the second.

Going from Cc1ccncc1-c1cc2cc(Nc3cnn([C@@H]4CCN(C)C4=O)c3)ncc2c(N)n1 [Compound 249, (3R)-3-(4-[[8-amino-6-(4-methylpyridin-3-yl)-2,7-naphthyridin-3-yl]amino]-1H-pyrazol-1-yl)-1-methylpyrrolidin-2-one] to CCc1ccncc1-c1cc2cc(NS(=O)(=O)C3CC3)ncc2c(N)n1 [Compound 79, Cyclopropanesulfonic acid [8-amino-6-(4-ethylpyridin-3-yl)-[2,7]naphthyridin-3-yl]amide], the Ki rises from 0.433 nM to 839 nM (1900-fold). The first binds more tightly here.

CC(=O)Nc1cc2c(F)c(-c3cnccc3C)nc(N)c2cn1 [Compound 156, N-(8-amino-5-fluoro-6-(4-methylpyridin-3-yl)-2,7-naphthyridin-3-yl)acetamide] gave a Ki of 21 nM.
